Data from US20220389031A1, “MACROCYCLIC SULFONYLAMIDE DERIVATIVES USEFUL AS NLRP3 INHIBITORS” (Inflazome Limited, priority 2019, published 2022).

Columns and labels:
NLRP3 [1] = target: T1, NLRP3 (Homo sapiens, UniProt Q96P20); test: Human whole blood IL-1β release assay (LPS + nigericin, AlphaLisa); type: cell-based; set-up: Plate out 80 μl of whole blood containing 1 μg/ml of LPS; from tissue; host or cells: human whole blood from healthy volunteer donors; conditions: NLRP3 inhibitory activity, 1 μg/ml LPS, 3 hrs compound, nigericin 10 μM 1 hr, read-out: HWB IC50
T1 sequence (Q96P20 whole entry): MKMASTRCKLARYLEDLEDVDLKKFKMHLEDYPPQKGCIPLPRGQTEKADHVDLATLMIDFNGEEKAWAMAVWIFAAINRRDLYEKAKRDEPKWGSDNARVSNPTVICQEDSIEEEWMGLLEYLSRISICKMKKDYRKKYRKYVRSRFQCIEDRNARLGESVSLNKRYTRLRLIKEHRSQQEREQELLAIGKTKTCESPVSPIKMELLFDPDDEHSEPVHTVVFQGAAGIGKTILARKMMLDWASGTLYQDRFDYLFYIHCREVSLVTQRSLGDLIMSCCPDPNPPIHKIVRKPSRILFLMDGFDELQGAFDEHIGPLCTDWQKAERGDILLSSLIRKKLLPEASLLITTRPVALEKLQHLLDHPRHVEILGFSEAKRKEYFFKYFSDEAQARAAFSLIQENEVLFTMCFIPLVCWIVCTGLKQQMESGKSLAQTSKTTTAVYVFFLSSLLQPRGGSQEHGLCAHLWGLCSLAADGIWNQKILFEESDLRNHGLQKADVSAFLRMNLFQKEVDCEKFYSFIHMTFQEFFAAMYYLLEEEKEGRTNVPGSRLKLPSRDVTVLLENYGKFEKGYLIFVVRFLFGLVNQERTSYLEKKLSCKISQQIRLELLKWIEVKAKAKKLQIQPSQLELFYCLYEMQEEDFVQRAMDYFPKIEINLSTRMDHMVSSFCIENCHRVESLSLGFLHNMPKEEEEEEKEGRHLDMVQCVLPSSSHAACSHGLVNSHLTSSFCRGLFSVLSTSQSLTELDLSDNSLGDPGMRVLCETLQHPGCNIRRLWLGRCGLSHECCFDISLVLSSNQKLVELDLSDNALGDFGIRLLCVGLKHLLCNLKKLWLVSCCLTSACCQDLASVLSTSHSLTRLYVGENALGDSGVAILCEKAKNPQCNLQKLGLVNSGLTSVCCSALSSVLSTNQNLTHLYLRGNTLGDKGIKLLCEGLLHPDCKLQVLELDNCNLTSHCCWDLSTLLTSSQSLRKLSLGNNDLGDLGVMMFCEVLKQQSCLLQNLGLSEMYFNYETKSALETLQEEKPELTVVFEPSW
Description: For systemic delivery, the ability to inhibit NLRP3 when the compounds are present within the bloodstream is of great importance. For this reason, the NLRP3 inhibitory activity of a number of compounds in human whole blood was investigated in accordance with the following protocol.
Human whole blood in Li-heparin tubes was obtained from healthy donors from a volunteer donor panel. • 1. Plate out 80 μl of whole blood containing 1 μg/ml of LPS in 96-well, clear bottom cell culture plate (Corning #3585) • 2. Add 10 μl compound (8 points half-log dilution with 10 μM top dose) or vehicle (DMSO 0.1% FAC) to the appropriate wells • 3. Incubate for 3 hrs at 37° C., 5% CO2 • 4. Add 10 μl nigericin (Sigma #N7143) (10 μM FAC) to all wells • 5. Incubate for 1 hr at 37° C., 5% CO2 • 6. […] IL-1β was measured according to the manufacturer protocol (Perkin Elmer-AlphaLisa IL-1 Kit AL220F-5000) • 8. IC50 data is fitted to a non-linear regression equation (log inhibitor vs response-variable slope 4-parameters)

NLRP3 [2] = target: T1, NLRP3; test: THP-1 cells pyroptosis assay (LPS + nigericin, resazurin readout); type: cell-based; set-up: Seed THP-1 cells (25,000 cells/well) containing 1.0 μg/ml LPS; host or cells: THP-1 cells; conditions: NLRP3 inhibitory activity, 1.0 μg/ml LPS, 3 hrs compound, nigericin 5 μM 1 hr
Description: THP-1 cells (ATCC #TIB-202) were grown in RPMI containing L-glutamine (Gibco #11835) supplemented with 1 mM sodium pyruvate (Sigma #S8636) and penicillin (100 units/ml)/streptomycin (0.1 mg/ml) (Sigma #P4333) in 10% Fetal Bovine Serum (FBS) (Sigma #F0804). The cells were routinely passaged and grown to confluency (˜10^6 cells/ml). On the day of the experiment, THP-1 cells were harvested and resuspended into RPMI medium (without FBS). The cells were then counted and viability (>90%) checked by Trypan blue (Sigma #T8154). Appropriate dilutions were made to give a concentration of 625,000 cells/ml. To this diluted cell solution was added LPS (Sigma #L4524) to give a […] Final Assay Concentration (FAC). 40 μl of the final preparation was aliquoted into each well of a 96-well plate. The plate thus prepared was used for compound screening.
The following method step-by-step assay was followed for compound screening. • 1. Seed THP-1 cells (25,000 cells/well) containing 1.0 μg/ml LPS in 40 μl of RPMI medium (without FBS) in 96-well, black walled, clear bottom cell culture plates coated with poly-D-lysine (VWR #734-0317) • 2. Add 5 μl compound (8 points half-log dilution, with 10 μM top dose) or vehicle (DMSO 0.1% FAC) to the appropriate wells • 3. Incubate for 3 hrs at 37° C., 5% CO2 • 4. Add 5 μl nigericin (Sigma #N7143) (FAC 5 μM) to all wells • 5. Incubate for 1 hr at 37° C., 5% CO2 • 6. At the end of the incubation period, spin plates at 300×g for 3 mins and remove supernatant • 7. Then add 50 μl of resazurin (Sigma #R7017) (FAC 100 μM resazurin in RPMI medium without FBS) and incubate plates for a further 1-2 hrs at 37° C. and 5% CO2 • 8. Plates were read in an Envision reader at Ex 560 nm and Em 590 nm • 9. IC50 data is fitted to a non-linear regression equation (log inhibitor vs response-variable slope 4-parameters)

Row | Structure (SMILES) | IC50 (NLRP3 [1]) [µM] | IC50 (NLRP3 [2]) [nM]
1 | CC(C)c1cc(F)cc2c1CC(=O)NS(=O)(=O)c1nn(c(C(=O)N(C)C)c1F)C(C)(C)COc1cc-2ccn1 [Example 39] | 1 to 5 | 1000 to 5000
2 | CC(C)c1cc(F)cc2c1CC(=O)NS(=O)(=O)c1nn(cc1F)C1(CC1)COc1cc-2ccn1 [Example 20] | 1 to 5 | 500 to 1000
3 | CC(C)c1cccc2c1CC(=O)NS(=O)(=O)c1ccn(n1)C(C)(C)COc1cc-2ccn1 [Example 1, 16,16-dimethyl-6-(propan-2-yl)-18-oxa-11λ^6-thia-10,15,20,24-tetraaza-tetracyclo[17-3-1-1^12,15.0^2,7]tetracosa-1(22),2(7),3,5,12(24),13,19(23),20-octaene-9,11,11-trione] | 1 to 5 | 1000 to 5000
4 | CCN1CCc2c3nn(c2C1)C(C)(C)COc1cc(ccn1)-c1cc(F)cc(C(C)C)c1CC(=O)NS3(=O)=O [Example 40] | 1 to 5 | 1000 to 5000
5 | CC(C)c1cccc2c1CC(=O)NS(=O)(=O)c1cnn(n1)C(C)(C)COc1cc-2ccn1 [Example 36] | 1 to 5 | 1000 to 5000
6 | CC(C)c1cccc2c1CC(=O)NS(=O)(=O)c1ccn(n1)CCOc1cc-2ccn1 [Example 4] | 5 to 10 | 1000 to 5000
7 | CC(C)c1cccc2c1CC(=O)NS(=O)(=O)c1cc(cc(C(C)(C)O)c1)CCOc1cc-2ccn1 [Example 11] | 1 to 5 | 100 to 500
8 | COc1cn2nc1S(=O)(=O)NC(=O)Cc1c(cc(F)cc1C(C)C)-c1ccnc(c1)OCC2(C)C [Example 19] | 0.5 to 1 | 100 to 500
9 | CC(C)c1cc(F)cc2c1CC(=O)NS(=O)(=O)c1cc(C(=O)N(C)C)n(n1)C(C)(C)COc1cc-2ccn1 [Example 41] | 1 to 5 | 1000 to 5000
10 | CC(C)c1cccc2c1CC(=O)NS(=O)(=O)c1cn(cn1)C(C)(C)COc1cc-2ccn1 [Example 33] | 1 to 5 | 500 to 1000
11 | CC(C)c1cccc2c1CC(=O)NS(=O)(=O)c1cc(n(C(C)C)n1)CCOc1cc-2ccn1 [Example 10] | 1 to 5 | 1000 to 5000
12 | CC(C)c1cc(F)cc2c1CC(=O)NS(=O)(=O)c1cnn(c1)CCOc1cc-2ccn1 [Example 22] | 5 to 10 | 1000 to 5000
13 | CC(C)c1cc(F)cc2c1CC(=O)NS(=O)(=O)c1nn(cc1F)C(C)(C)COc1cc-2ccn1 [Example 15] | 1 to 5 | 100 to 500
14 | CC1(C)COc2cc(ccn2)-c2cccc(C3CC3)c2CC(=O)NS(=O)(=O)c2nn1cc2F [Example 27] | 0.5 to 1 | 1000 to 5000
15 | CC(C)c1cccc2c1CC(=O)NS(=O)(=O)c1cc(CN(C)C)n(n1)CCCCCOc1cc-2ccn1 [Example 3] | 5 to 10 | 5000 to 10000
16 | Cc1ccc(C(C)C)c2c1-c1ccnc(c1)OCC(C)(C)n1ccc(n1)S(=O)(=O)NC(=O)C2 [Example 2] | 0.5 to 1 | 1000 to 5000
17 | CC(C)(O)c1cc2cc(c1)S(=O)(=O)NC(=O)Cc1c(ccc3c1CCC3)-c1ccnc(c1)OCC2 [Example 17, 17-(2-hydroxypropan-2-yl)-22-oxa-14λ^6-thia-13,24-diazapentacyclo-[21.3.1.1^15,19.0^2,10.0^5,9]octacosa-1(26),2,4,9,15,17,19(28),23(27),24-nonaene-12,14,14-trione] | 1 to 5 | 500 to 1000
18 | CC(C)c1cccc2c1CC(=O)NS(=O)(=O)c1cnn(c1)CCOc1cc-2ccn1 [Example 21] | 5 to 10 | 1000 to 5000
19 | CC(C)c1cccc2c1CC(=O)NS(=O)(=O)c1nn(cc1F)C(C)(C)CCOc1cc-2ccn1 [Example 31] | 1 to 5 | 1000 to 5000
20 | Cc1ccc(C(C)C)c2c1-c1ccnc(c1)OCCn1cc(F)c(n1)S(=O)(=O)NC(=O)C2 [Example 13] | 1 to 5 | 1000 to 5000
21 | Cc1ccc(C(C)C)c2c1-c1ccnc(c1)OCC(C)(C)n1cc(F)c(n1)S(=O)(=O)NC(=O)C2 [Example 12] | 0.5 to 1 | 500 to 1000
22 | Cc1nn2cc1S(=O)(=O)NC(=O)Cc1c(cccc1C(C)C)-c1ccnc(c1)OCC2(C)C [Example 24] | 1 to 5 | 500 to 1000
23 | CC(C)c1cccc2c1CC(=O)NS(=O)(=O)c1nn(cc1F)-c1ncccc1COc1cc-2ccn1 [Example 38] | 1 to 5 | 1000 to 5000
24 | CC(C)c1cccc2c1CC(=O)NS(=O)(=O)c1ccn(n1)CCOc1cc-2cnn1 [Example 44, 6-(propan-2-yl)-18-oxa-11λ^6-thia-10,15,20,21,24-pentaazatetracyclo-[17.3.1.1^12,15.0^2,7]tetracosa-1(22),2(7),3,5,12(24),13,19(23),20-octaene-9,11,11-trione] | 5 to 10 | 1000 to 5000
25 | CC(C)c1cccc2c1CC(=O)NS(=O)(=O)c1nn(c3ncccc13)C(C)(C)COc1cc-2ccn1 [Example 37] | 1 to 5 | 500 to 1000
